Experimental data as given in article PMC6257622, “Discovery and Structure–Activity-Relationship Study of N-Alkyl-5-hydroxypyrimidinone Carboxamides as Novel Antitubercular Agents Targeting Decaprenylphosphoryl-β-D-ribose 2′-Oxidase” (Journal of Medicinal Chemistry, 2018).
Converted amounts (≈) assume the structure as drawn. Like-named read-outs stand apart in the source and are kept apart here.

What was measured:
Mtb strain H37Rv = assay: MIC determination against Mtb H37Rv in different media; assay type: cell-based, Mycobacterium tuberculosis; details: for antitubercular activity (in words): SAR discussion
in vitro = assay type: cell-based; details: human; HepG2 cells in DMEM/10% FBS supplemented with glucose; read-out: Cytotoxicity (IC50) Glucose
HepG2 cells = assay: in vitro; assay type: cell-based
[1] = test system: Mtb in J774 murine macrophages; assay: Intracellular killing assay in murine macrophage J774; details: 1–50-fold MIC, 4 or 7 days
Description: For the ex vivo efficacy test, J774 cells (5 × 10^5 cells/well) were seeded in flat-bottom 24-well plates (Corning Inc.) in DMEM GlutaMAX (Gibco/ThermoFisher Scientific) supplemented with 10% fetal-bovine serum, 20 mM HEPES, and 0.5 mM sodium pyruvate (hereafter abbreviated as DMEM/FBS). Cells were infected with Mtb (5 × 10^5 cells/well, MOI 1) for 24 h; this was followed by medium removal and washing (2×) with an equal volume of Dulbecco’s PBS. Infected cells were fed DMEM/FBS and exposed to test compounds at 1×, 10×, 20×, and 50× MIC in medium (500 μL/well). Cells were incubated at 37 °C with 95% humidity and 5% CO2 in an incubator for 7 days. The medium was changed every 4 days. After 4 and 7 days of incubation, 0.1% SDS was added to each well to lyse the J774 cells. After 5 min, the lysate was thoroughly mixed and diluted in 7H9/ADC, and appropriate dilutions were plated in duplicate on 7H11/OADC plates.

[2] = Mycobacterium tuberculosis, H37RV, Mtb H37Rv in GAST (Table 2), read-out: MIC GAST
[3] = Mycobacterium tuberculosis, H37RV, supplementary CSV, read-out: MIC in 7H9/ADC
[4] = Mycobacterium tuberculosis, H37RV, supplementary CSV, read-out: MIC in GAST/Fe
[5] = Mycobacterium tuberculosis, H37RV, read-out: MIC 7H9/ADC
[6] = HepG2 cells in DMEM/10% FBS with galactose (mitochondrial toxicity), read-out: Cytotoxicity (IC50) Galactose
[7] = Mtb H37Rv in GAST (Table 2), read-out: MIC GAST
[8] = supplementary CSV, read-out: MIC in 7H9/ADC
[9] = supplementary CSV, read-out: MIC in GAST/Fe
[10] = HepG2 cells in DMEM/10% FBS supplemented with glucose, read-out: Cytotoxicity (IC50) Glucose

Row | Compound | MIC (Mtb strain H37Rv; [2]) | MIC (Mtb strain H37Rv; [3]) | MIC (Mtb strain H37Rv; [4]) | MIC (Mtb strain H37Rv; [5]) | IC50 (in vitro) | IC50 (HepG2 cells; [6]) | antitubercular activity (in words) (Mtb strain H37Rv) | fold more potent than regioisomer P10 (Mtb strain H37Rv; o-F versus p-F) | activity against Mtb replication in J774 murine macrophages [1] | fold increase in MIC (reduced potency) compared with P01 (Mtb strain H37Rv) | MIC (Mtb strain H37Rv; [7]) | MIC (Mtb strain H37Rv; read-out: MIC 7H9/ADC) | MIC (Mtb strain H37Rv; [8]) | MIC (Mtb strain H37Rv; [9]) | IC50 (HepG2 cells; [10])
1 | Cn1c(Cc2ccccc2C(F)(F)F)nc(C(=O)NCc2ccc(F)cc2)c(O)c1=O [Compound P10, N-(4-Fluorobenzyl)-5-hydroxy-1-methyl-6-oxo-2-(2-(trifluoromethyl)benzyl)-1,6-dihydropyrimidine-4-carboxamide] | 2.3 µM (≈ 1 µg/mL) | 18.8 µM (≈ 8.19 µg/mL) | 2.3 µM (≈ 1 µg/mL) | 18.8 µM (≈ 8.19 µg/mL) | > 100 µM | > 100 µM | – | – | – | – | – | – | – | – | –
2 | O=C(NCc1ccccc1)c1nc(Cc2ccccc2C(F)(F)F)[nH]c(=O)c1O [Compound P14, N-Benzyl-5-hydroxy-6-oxo-2-(2-(trifluoromethyl)benzyl)-1,6-dihydropyrimidine-4-carboxamide] | > 100 µM | > 100 µM | > 100 µM | > 100 µM | > 100 µM | > 100 µM | not tolerated | – | – | – | – | – | – | – | –
3 | CC(NC(=O)c1nc(Cc2ccccc2C(F)(F)F)n(C)c(=O)c1O)c1ccccc1 (stereo not shown) [Compound P13, 5-Hydroxy-1-methyl-6-oxo-N-(1-phenylethyl)-2-(2-(trifluoromethyl)benzyl)-1,6-dihydropyrimidine-4-carboxamide] | > 100 µM | > 100 µM | > 100 µM | > 100 µM | > 100 µM | > 100 µM | loss of activity | – | – | – | – | – | – | – | –
4 | Cn1c(Cc2ccccc2C(F)(F)F)nc(C(=O)NCc2ccccc2F)c(O)c1=O [Compound P09, N-(2-Fluorobenzyl)-5-hydroxy-1-methyl-6-oxo-2-(2-(trifluoromethyl)benzyl)-1,6-dihydropyrimidine-4-carboxamide] | 0.59 µM (≈ 0.257 µg/mL) | 4.7 µM (≈ 2.05 µg/mL) | 0.59 µM (≈ 0.257 µg/mL) | 4.7 µM (≈ 2.05 µg/mL) | > 100 µM | > 100 µM | – | > 4 fold | active | – | – | – | – | – | –
5 | COc1c(C(=O)NCc2ccccc2)nc(Cc2ccccc2C(F)(F)F)n(C)c1=O [Compound P17, N-Benzyl-5-methoxy-1-methyl-6-oxo-2-(2-(trifluoromethyl)benzyl)-1,6-dihydropyrimidine-4-carboxamide] | > 100 µM | > 100 µM | > 100 µM | > 100 µM | > 100 µM | > 100 µM | inactive | – | – | – | – | – | – | – | –
6 | Cn1c(Cc2ccccc2C(F)(F)F)nc(C(=O)Nc2ccccc2)c(O)c1=O [Compound P05, 5-Hydroxy-1-methyl-6-oxo-N-phenyl-2-(2-(trifluoromethyl)benzyl)-1,6-dihydropyrimidine-4-carboxamide] | 1.6 µM (≈ 0.645 µg/mL) | 18.8 µM (≈ 7.58 µg/mL) | 1.6 µM (≈ 0.645 µg/mL) | 18.8 µM (≈ 7.58 µg/mL) | > 100 µM | > 100 µM | – | – | – | around 4 fold | – | – | – | – | –
7 | Cn1c(Cc2ccccc2)nc(C(=O)NCc2ccccc2)c(O)c1=O [Compound P02, N,2-Dibenzyl-5-hydroxy-1-methyl-6-oxo-1,6-dihydropyrimidine-4-carboxamide] | 3.1 µM (≈ 1.08 µg/mL) | 9.4 µM (≈ 3.28 µg/mL) | 3.1 µM (≈ 1.08 µg/mL) | 9.4 µM (≈ 3.28 µg/mL) | > 100 µM | > 100 µM | – | – | – | – | – | – | – | – | –
8 | CN(Cc1ccccc1)C(=O)c1nc(Cc2ccccc2C(F)(F)F)n(C)c(=O)c1O [Compound P12, N-Benzyl-5-hydroxy-N,1-dimethyl-6-oxo-2-(2-(trifluoromethyl)benzyl)-1,6-dihydropyrimidine-4-carboxamide] | > 100 µM | > 100 µM | > 100 µM | > 100 µM | > 100 µM | > 100 µM | loss of activity | – | – | – | – | – | – | – | –
9 | Cn1c(Cc2ccccc2C(F)(F)F)nc(C(=O)NCc2cccnc2)c(O)c1=O [Compound P08, 5-Hydroxy-1-methyl-6-oxo-N-(pyridin-3-ylmethyl)-2-(2-(trifluoromethyl)benzyl)-1,6-dihydropyrimidine-4-carboxamide] | 4.7 µM (≈ 1.97 µg/mL) | 18.8 µM (≈ 7.87 µg/mL) | 4.7 µM (≈ 1.97 µg/mL) | 18.8 µM (≈ 7.87 µg/mL) | > 100 µM | > 100 µM | – | – | – | – | – | – | – | – | –
10 | N-Benzyl-5-hydroxy-6-methoxy-2-(2-(trifluoromethyl)benzyl)pyrimidine-4-carboxamide [Compound P16] | – | – | – | – | – | > 100 µM | inactive | – | – | – | 37.5 µM | >100 µM | >100 µM | 37.5 µM | > 100 µM
11 | Cn1c(Cc2ccccc2C(F)(F)F)nc(C(=O)CCc2ccccc2)c(O)c1=O [Compound P18, 5-Hydroxy-3-methyl-6-(3-phenylpropanoyl)-2-(2-(trifluoromethyl)benzyl)pyrimidin-4(3H)-one] | 12.5 µM (≈ 5.2 µg/mL) | 100 µM (≈ 41.6 µg/mL) | 12.5 µM (≈ 5.2 µg/mL) | 100 µM (≈ 41.6 µg/mL) | > 100 µM | > 100 µM | – | – | – | – | – | – | – | – | –
12 | CC(c1ccccc1C(F)(F)F)c1nc(C(=O)NCc2ccccc2)c(O)c(=O)n1C (stereo not shown) [Compound P15, N-Benzyl-5-hydroxy-1-methyl-6-oxo-2-(1-(2-(trifluoromethyl)phenyl)ethyl)-1,6-dihydropyrimidine-4-carboxamide] | 3.1 µM (≈ 1.34 µg/mL) | 18.3 µM (≈ 7.89 µg/mL) | 3.1 µM (≈ 1.34 µg/mL) | 18.3 µM (≈ 7.89 µg/mL) | > 100 µM | > 100 µM | – | – | – | 5 fold | – | – | – | – | –
13 | Cn1c(Cc2ccccc2C(F)(F)F)nc(C(=O)NCC2CCCCC2)c(O)c1=O [Compound P06, N-(Cyclohexylmethyl)-5-hydroxy-1-methyl-6-oxo-2-(2-(trifluoromethyl)benzyl)-1,6-dihydropyrimidine-4-carboxamide] | 12.5 µM (≈ 5.29 µg/mL) | > 100 µM | 12.5 µM (≈ 5.29 µg/mL) | > 100 µM | > 100 µM | > 100 µM | – | – | – | – | – | – | – | – | –
14 | CCn1c(Cc2ccccc2C(F)(F)F)nc(C(=O)NCc2ccccc2)c(O)c1=O [Compound P04, N-Benzyl-1-ethyl-5-hydroxy-6-oxo-2-(2-(trifluoromethyl)benzyl)-1,6-dihydropyrimidine-4-carboxamide] | 0.4 µM (≈ 0.173 µg/mL) | 2.3 µM (≈ 0.992 µg/mL) | 0.39 µM (≈ 0.168 µg/mL) | 2.3 µM (≈ 0.992 µg/mL) | > 100 µM | > 100 µM | – | – | active | – | 0.39 µM (≈ 0.168 µg/mL) | – | – | – | –
15 | Cn1c(Cc2ccccc2C(F)(F)F)nc(C(=O)NCc2ccccn2)c(O)c1=O [Compound P07, 5-Hydroxy-1-methyl-6-oxo-N-(pyridin-2-ylmethyl)-2-(2-(trifluoromethyl)benzyl)-1,6-dihydropyrimidine-4-carboxamide] | 1.2 µM (≈ 0.502 µg/mL) | 3.1 µM (≈ 1.3 µg/mL) | 1.2 µM (≈ 0.502 µg/mL) | 3.1 µM (≈ 1.3 µg/mL) | > 100 µM | > 100 µM | – | – | active | – | – | – | – | – | –
16 | N-Benzyl-2-ethyl-5-hydroxy-1-methyl-6-oxo-1,6-dihydropyrimidine-4-carboxamide [Compound P03] | – | – | – | – | – | > 100 µM | complete loss of potency | – | – | – | >100 µM | >100 µM | >100 µM | >100 µM | > 100 µM
17 | Cn1c(Cc2ccccc2C(F)(F)F)nc(C(=O)NCc2ccc3c(c2)OCO3)c(O)c1=O [Compound P11, N-(Benzo[d][1,3]dioxol-5-ylmethyl)-5-hydroxy-1-methyl-6-oxo-2-(2-(trifluoromethyl)benzyl)-1,6-dihydropyrimidine-4-carboxamide] | 37.5 µM (≈ 17.3 µg/mL) | > 100 µM | 37.5 µM (≈ 17.3 µg/mL) | > 100 µM | > 100 µM | > 100 µM | – | – | – | – | – | – | – | – | –
